# Data from patent publication US20140363530A1, “COMPOSITION COMPRISING THE EXTRACT OF PINE TREE LEAF OR THE COMPOUNDS ISOLATED THEREFROM FOR THE PREVENTION AND TREATMENT OF CANCER DISEASE BY INHIBITING HPV VIRUS AND THE USES THEREBY” (priority 2012, published 2014).
# Where two headings read alike, the source gives them in different places.
# What was measured:
# [1] = system: SK-MEL-2 (human malignant melanoma); assay: SRB cytotoxicity test, SK-MEL-2; type: cell-based
# Description: (§1) To determine the cytotoxicity against human tumor cell line of the test samples prepared in Examples, following sulforhodamin B (SRB) bioassy test was performed according to the method disclosed in the literature (Skehan, P., et al., J. Natl. Cancer Inst., 82, 1990, 1107-1112).
# (§2) Various human tumor cell lines, i.e., A-549 (human adenocarcinoma of lung, NCI), SK-OV-3 (human ovarian tumor, NCI), SK-MEL-2 (human malignant melanoma, NCI), HCT15 (human colon adenocarcinoma, NCI), MES-SA (human uterine carcinoma, NCI) and MES-SA/DX5 (multidrug resistant carcinoma subline of MES-SA, NCI) were used in the test.
# (§3) The subcultured cell lines were detached from the surface of wall using by trypsin-EDTA solution and adjusted to various concentration of cell lines, i.e., 5×10^3 cells/well (A-549, HCT15), 1×10^4 cells/well (SK-MEL-2), 5×10^3 cells/well (SK-OV-3) in 96-well flat bottom microplate. The inoculated cell lines were incubated in CO2 incubator (MCO-20AIC, SANYO Electric Co., LTd.) to be attached on the bottom of incubator and the culture media was removed with aspirator. 6 logarithmic concentrations of the diluted test samples were added to each well containing cell line at 100 μl/well in a three fold dilution manner and the cell was incubated for 48 hours. The culture media in each well was removed and 100μ of 10% trichloroacetic acid was added thereto to be left alone at 4° C. for 1 hour and to fix the cells to the bottom of the plates. […] The cell plates were shaked with titer plate shaker (KOMA Orbital Shaker KE011, KOMABIOTech) for 10 mins to exude the staining solution and to determine the absorbance at 520 nm using by microplate spectrophotometer (Sunrise, TECAN).
# [2] = system: SK-OV-3 (human ovarian tumor); assay: SRB cytotoxicity test, SK-OV-3; type: cell-based
# Description: as §1, §2, §3
# [3] = system: HCT15 (human colon adenocarcinoma); assay: SRB cytotoxicity test, HCT15; type: cell-based; conditions: for IC50: Homo sapiens, HCT-15, 48 h, read-out: Cytotoxicity IC50, HCT15
# Description: as §1, §2, §3
# [4] = system: A-549 (human adenocarcinoma of lung); assay: SRB cytotoxicity test, A-549; type: cell-based
# Description: as §1, §2, §3
# [5] = system: MES-SA/DX5 (multidrug resistant carcinoma subline of MES-SA); assay: SRB cytotoxicity test, MES-SA/DX5; type: cell-based, human; conditions: for IC50: Homo sapiens, MES-SA/Dx5, 48 h
# Description: as §1, §2, §3
# [6] = system: MES-SA (human uterine carcinoma); assay: SRB cytotoxicity test, MES-SA; type: cell-based; conditions: for IC50: Homo sapiens, MES-SA, 48 h, read-out: Cytotoxicity IC50, MES-SA
# Description: as §1, §2, §3
# [7] = system: HPV16 PVs; assay: Virus inhibition test (in vitro), SEAP activity of 293TT cells infected with HPV pseudovirion; type: cell-based; conditions: Human papillomavirus 16, read-out: inhibitory activity from HPV16 PVs
# Description: Prior to in vitro antiviral assay, 5×10^3 of 293TT cell was seeded on 96-well plate and incubated at 37° C. for 16 hours in 5% CO2 atmosphere. The culture media was removed and each extract was diluted to the concentration of 100 μg/ml or 50 μg/ml to distribute into each cell at the dose of 100 μl/cell. After treating with the extract for 16 hours, the culture media was removed and the cell was washed with PBS twice. The cell was infected by 106RLU/ml of HPV PVs at the dose of 100 μl/cell and incubated for 48 hours at 37° C. in 5% CO2 atmosphere. To determine the viral activity, the supernatant of the cell culture was used for determine the activity of secreted alkaline phosphatase (SEAP) using by Great EscAPE™ SEAP Chemiluminescence Kit (631738, Clontech, CA, USA). To determine the SEAP activity, relative light units (RLU) value was obtained using by Luminescence coulter (Micro beta triLux 1450, PerkinElmer, CT, USA) and the RLU values of the cell treated with the extract and untreated with the extract, were compared with each other. The decrease of SEAP activity was regarded as the inhibition effect against HPV PVs.
# To determine the inhibitory effect on luciferase-comprising HPV virus contagion of the test samples prepared in Examples, following test was performed according to the method disclosed in the literature (Shaneyfelt et al., Virology Journal, 3:68, 2006, 1-11; Roden et al., J. Virol., 70, 1996, 5875-5883; Unckell et al., J. Virol., 71, 1997, 2934-2939; Touze et al., Nucleic Acids Research, 26, 1998, 1317-1323; Selinka et al., J. Virol., 77, 2003, 12961-12967; Klasse et al., Journal of General Virology, 83, 2002, 2091-2108)
# 5×10^3293TT cell was seeded on 96-well plate and incubate for 16 hours. 50 μg of test sample was mixed with the culture media in the concentration of 100 ug/ml and incubated for 16 hours. The media was washed with 100 μl of PBS twice and the cell was infected with 10^6RLU/ml of HPV pseudovirion at the dose of 100 μl/cell to incubate at 37° C., for 48 hours in 5% CO2 atmosphere.
# 5× lysis buffer in Great EscAPE™ SEAP Chemiluminescence Kit (631738, Clontech, CA, USA) was made to 1× and both of 45 μl of 1× lysis buffer and 15 μl of cell culture medium were added to 96-well plate (3912, Costar, NY, USA). 60 μl of the substrate in Great EscAPE™ SEAP Chemiluminescence kit was added thereto and the relative light units (RLU) value was obtained using by Luminescence coulter (Micro beta triLux 1450, PerkinElmer, CT, USA). The RLU values of the cell treated with the extract and untreated with the extract, were compared with each other and the decrease of SEAP activity was regarded as the inhibition effect against HPV PVs.
# [8] = system: HCT15/CL02; assay: SRB cytotoxicity test, HCT15/CL02; type: cell-based, human; conditions: Table 4, 48 hours; for IC50: Homo sapiens, HCT-15
# Description: To determine the cytotoxicity against human tumor cell line of the test samples prepared in Examples, following sulforhodamin B (SRB) bioassy test was performed according to the method disclosed in the literature (Skehan, P., et al., J. Natl. […] The inoculated cell lines were incubated in CO2 incubator (MCO-20AIC, SANYO Electric Co., LTd.) to be attached on the bottom of incubator and the culture media was removed with aspirator. 6 logarithmic concentrations of the diluted test samples were added to each well containing cell line at 100 μl/well in a three fold dilution manner and the cell was incubated for 48 hours. […] The cell plates were shaked with titer plate shaker (KOMA Orbital Shaker KE011, KOMABIOTech) for 10 mins to exude the staining solution and to determine the absorbance at 520 nm using by microplate spectrophotometer (Sunrise, TECAN).
# [9] = read-out: Cytotoxicity IC50, MES-SA/DX5
Compound,"Cytotoxicity IC50, HCT15 [3] [µg/mL]","IC50 [5, 9] [µg/mL]",inhibition at 50 µg/mL [7] [%],"IC50 ([6]; Table 4, 48 hours) [µg/mL]",IC50 [8] [µg/mL],"IC50 ([3]; Table 4, 48 hours) [µg/mL]",other results
"9,14-dihydroxytotara-7-ene-8-oic acid [compound (a)]",117.31,,,,,,"Cytotoxicity IC50, SK-MEL-2 [1]: 99.45 µg/mL; Cytotoxicity IC50, SK-OV-3 [2]: 120.05 µg/mL; Cytotoxicity IC50, A-549 [4]: 127.16 µg/mL"
"C=C[C@]1(C)CCC2[C@@]3(C)CCC[C@@](C)(CO)C3CC[C@@]2(C)O1 (single isomer, unassigned; ent-18) [compound (h), ent-18-hydrorxy-13-epimanoyl oxide]",,9.54,70 to 80,,,,"IC50 ([1]; Homo sapiens, SK-MEL-2, Table 3, 48 hours, read-out: Cytotoxicity IC50, SK-MEL-2): 11.3 µg/mL; IC50 ([6]; Table 3, 48 hours): 8.17 µg/mL; IC50 ([2]; Homo sapiens, SK-OV-3, Table 3, 48 hours, read-out: Cytotoxicity IC50, SK-OV-3): 12.7 µg/mL; IC50 ([3]; Table 3, 48 hours): 10 µg/mL; IC50 ([4]; Homo sapiens, A549, Table 3, 48 hours, read-out: Cytotoxicity IC50, A-549): 13.3 µg/mL"
"C=C1CCC2[C@](C)(C(=O)O)CCC[C@]2(C)[C@H]1CC[C@H](C)CCO (stereo partly drawn) [compound (b), (13S)-15-hydroxylabd-8(17)-en-18-oic acid]",,11.5,70 to 80,19.1,12.8,20.2,
"C=C1CCC2C(C)(C(=O)O)CCCC2(C)C1CCC(C)CC(=O)O (stereo not drawn) [compound (c), ent-labd-8(17)-ene-15,18-dioic acid]",>30.0,,,,,,"Cytotoxicity IC50, MES-SA/DX5 ([5]; Table 4, 48 hours): >30.0 µg/mL; Cytotoxicity IC50, MES-SA [6]: >30.0 µg/mL; Cytotoxicity IC50, HCT15/CL02 [8]: 21.47 µg/mL"
"C=C1CCC2[C@](C)(C(=O)O)CCC[C@]2(C)[C@H]1/C=C/C(C)=O (stereo partly drawn) [compound (d), 13-oxo-15,16-dinorlabda-8(17),11E-dien-19-oic acid]",,,70 to 80,> 30,27.6,> 30,"IC50 ([5]; read-out: Cytotoxicity IC50, MES-SA/DX5, Table 4, 48 hours): > 30 µg/mL"
"C[C@@]1(C(=O)O)CCC[C@]2(C)c3ccc(O)cc3CCC12 (stereo partly drawn) [compound (e), 13-hydroxy-8,11,13-podocarpatrien-18-oic acid]",,25.8,70 to 80,> 30,26.4,> 30,
